pIC50: −log10 of the molar value.

The first test deals with IDH1 R132H (Homo sapiens (Human), UniProt O75874, R132H). The test can be described thus: Assays for IDH1 R132H Inhibitors (NADPH/aKG, resazurin detection). In kind it is biochemical. Conditions: IDH1 R132H enzyme, Table 2; read-out: IDHR132H Activity. The procedure: Assays were conducted in a volume of […] assay buffer (150 mM NaCl, 10 mM MgCl2, 20 mM Tris pH 7.5, 0.03% bovine serum albumin) as follows in a standard 384-well plate: To 25 ul of substrate mix (8 uM NADPH, 2 mM aKG), 1 μl of test compound was added in DMSO. […] The reaction was incubated for 50 minutes at room temperature, then 25 μl of detection mix (30 μM resazurin, […]) was added and the mixture further incubated for 5 minutes at room temperature.
Chain of IDH1 R132H (O75874 whole entry R132H): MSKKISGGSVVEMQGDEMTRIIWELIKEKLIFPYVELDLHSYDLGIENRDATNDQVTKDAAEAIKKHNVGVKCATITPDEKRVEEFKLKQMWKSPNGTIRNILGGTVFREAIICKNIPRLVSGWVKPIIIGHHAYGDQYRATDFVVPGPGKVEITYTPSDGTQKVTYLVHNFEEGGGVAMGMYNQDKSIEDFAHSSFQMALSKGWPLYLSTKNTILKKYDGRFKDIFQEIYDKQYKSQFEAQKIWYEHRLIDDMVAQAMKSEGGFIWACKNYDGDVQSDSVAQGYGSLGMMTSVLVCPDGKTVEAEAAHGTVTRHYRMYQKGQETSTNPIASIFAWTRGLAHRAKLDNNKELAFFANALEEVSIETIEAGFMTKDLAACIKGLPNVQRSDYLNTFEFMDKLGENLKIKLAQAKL
(Resazurin is reduced to fluorescent resorufin, in cell work by metabolically active cells.)
For the compound `CCOC(=O)C1CN(c2nc(C(C)C)c3c(c2C#N)CC(C)(C)OC3)CCN1C(=O)Cc1cccs1` (stereo not shown) [Compound 332, ethyl 4-(5-cyano-8-isopropyl-3,3-dimethyl-3,4-dihydro-1H-pyrano[3,4-c]pyridin-6-yl)-1-(2-(thiophen-2-yl)acetyl)piperazine-2-carboxylate], the pIC50 is 6.00 to 6.30. In the case of `CC(C)c1nc(N2CCN(C(=O)c3ccoc3)CC2c2ccccc2)c(C#N)c2c1COC(C)(C)C2` (stereo not shown) [Compound 178, 6-(4-(furan-3-carbonyl)-2-phenylpiperazin-1-yl)-8-isopropyl-3,3-dimethyl-3,4-dihydro-1H-pyrano[3,4-c]pyridine-5-carbonitrile], the pIC50 is 5.00 to 6.00.

As for `CCc1nc(N2CCN(C(=O)CCOC)[C@H](C(C)C)C2)c(C#N)c2c1COC(C)(C)C2` [Compound 413, (R)-8-ethyl-6-(3-isopropyl-4-(3-methoxypropanoyl)piperazin-1-yl)-3,3-dimethyl-3,4-dihydro-1H-pyrano[3,4-c]pyridine-5-carbonitrile], the pIC50 was more than 6.30. On to `CC(C)c1nc(N2CCN(C(=O)c3ccco3)[C@H](C)C2)c(C#N)c2c1COCC2` [Compound 139, (R)-6-(4-(furan-2-carbonyl)-3-methylpiperazin-1-yl)-8-isopropyl-3,4-dihydro-1H-pyrano[3,4-c]pyridine-5-carbonitrile], for which the pIC50 was 5.00 to 6.00. Consider `CC(=O)N1CCN(c2nc(C3CCCCC3)c3c(c2C#N)CCOC3)C[C@H]1C` [Compound 362, (R)-6-(4-acetyl-3-methylpiperazin-1-yl)-8-cyclohexyl-3,4-dihydro-1H-pyrano[3,4-c]pyridine-5-carbonitrile], for which the pIC50 is 5.00 to 6.00.

On to `CC(C)c1nc(N2CCN(C(=O)c3ccco3)CC2c2ccccc2)c(C#N)c2c1COCC2` (stereo not shown) [Compound 111, 6-(4-(furan-2-carbonyl)-2-phenylpiperazin-1-yl)-8-isopropyl-3,4-dihydro-1H-pyrano[3,4-c]pyridine-5-carbonitrile], for which the pIC50 was 5.00 to 6.00. The same measure, in the same setting: to `COCC(=O)N1CCN(c2nc(C3CC3)c3c(c2C#N)CC(C)(C)OC3)C[C@H]1C(C)C` [Compound 347, (R)-8-cyclopropyl-6-(3-isopropyl-4-(2-methoxyacetyl)piperazin-1-yl)-3,3-dimethyl-3,4-dihydro-1H-pyrano[3,4-c]pyridine-5-carbonitrile] belongs more than 6.30; to `CCOC(=O)C1CN(c2nc(C(C)C)c3c(c2C#N)CC(C)(C)OC3)CCN1C(=O)c1ccco1` (stereo not shown) [Compound 298, ethyl 4-(5-cyano-8-isopropyl-3,3-dimethyl-3,4-dihydro-1H-pyrano[3,4-c]pyridin-6-yl)-1-(furan-2-carbonyl)piperazine-2-carboxylate], 5.00 to 6.00; to `C[C@@H]1CN(c2nc(C3CCCC3)c3c(c2C#N)CCOC3)C[C@H](C)N1C(=O)c1ccco1` [Compound 126, 8-cyclopentyl-6-((3S,5R)-4-(furan-2-carbonyl)-3,5-dimethylpiperazin-1-yl)-3,4-dihydro-1H-pyrano[3,4-c]pyridine-5-carbonitrile], 5.00 to 6.00. In the case of `CC(C)[C@@H]1CN(c2nc(C3CC3)c3c(c2C#N)CC(C)(C)OC3)CCN1S(=O)(=O)c1ccc(Cl)s1` [Compound 285, (R)-6-(4-(5-chlorothiophen-2-ylsulfonyl)-3-isopropylpiperazin-1-yl)-8-cyclopropyl-3,3-dimethyl-3,4-dihydro-1H-pyrano[3,4-c]pyridine-5-carbonitrile], the pIC50 was 5.00 to 6.00.

For `Cc1occc1C(=O)N1CCN(c2nc(C(C)C)c3c(c2C#N)CCOC3)CC1` [Compound 113, 8-isopropyl-6-(4-(2-methylfuran-3-carbonyl)piperazin-1-yl)-3,4-dihydro-1H-pyrano[3,4-c]pyridine-5-carbonitrile], the pIC50 is 5.00 to 6.00.

As to `Cc1ccoc1C(=O)N1CCN(c2nc(C3CCCCC3)c3c(c2C#N)CCOC3)C[C@H]1C` [Compound 186, (R)-8-cyclohexyl-6-(3-methyl-4-(3-methylfuran-2-carbonyl)piperazin-1-yl)-3,4-dihydro-1H-pyrano[3,4-c]pyridine-5-carbonitrile], the pIC50 is 5.00 to 6.00. As for `CC(C)[C@@H]1CN(c2nc(C3CC3)c3c(c2C#N)CC(C)(C)OC3)CCN1C(=O)c1cccnc1` [Compound 271], the pIC50 is 5.00 to 6.00.

In the case of `CC(C)c1nc(N2CCN(C(=O)Cc3cccs3)[C@H](C)C2)c(C#N)c2c1COC(C)(C)C2` [Compound 158, (R)-8-isopropyl-3,3-dimethyl-6-(3-methyl-4-(2-(thiophen-2-yl)acetyl)piperazin-1-yl)-3,4-dihydro-1H-pyrano[3,4-c]pyridine-5-carbonitrile], the pIC50 is 6.00 to 6.30. Take `CC(C)[C@@H]1CN(c2nc(C3CC3)c3c(c2C#N)CC(C)(C)OC3)CCN1C(=O)COCC1CC1` [Compound 390]: the pIC50 was 6.00 to 6.30. The same measure, in the same setting: to `Cc1ccoc1C(=O)N1CCN(c2nc(C3CCCCC3)c3c(c2C#N)CCOC3)CC1` [Compound 129, 8-cyclohexyl-6-(4-(3-methylfuran-2-carbonyl)piperazin-1-yl)-3,4-dihydro-1H-pyrano[3,4-c]pyridine-5-carbonitrile] belongs 5.00 to 6.00; to `CC(C)c1nc(N2CCN(C(=O)c3csc4ccccc34)[C@H](C)C2)c(C#N)c2c1COC(C)(C)C2` [Compound 247, (R)-6-(4-(benzo[b]thiophene-3-carbonyl)-3-methylpiperazin-1-yl)-8-isopropyl-3,3-dimethyl-3,4-dihydro-1H-pyrano[3,4-c]pyridine-5-carbonitrile], 5.00 to 6.00; to `CC(C)c1nc(N2CCN(C(=O)C3CCOC3)[C@H](C)C2)c(C#N)c2c1COC(C)(C)C2` (stereo partly drawn) [Compound 253, 8-isopropyl-3,3-dimethyl-6-((3R)-3-methyl-4-(tetrahydrofuran-3-carbonyl)piperazin-1-yl)-3,4-dihydro-1H-pyrano[3,4-c]pyridine-5-carbonitrile], 5.00 to 6.00.

For the compound `CC1(C)Cc2c(C#N)c(N3CCN(C(=O)c4ccoc4)C(c4ccccc4)C3)nc(C3CC3)c2CO1` (stereo not shown) [Compound 156], the pIC50 is 5.00 to 6.00. Take `CC(C)[C@@H]1CN(c2nc(C3CCC3)c3c(c2C#N)CC(C)(C)OC3)CCN1C(=O)C1CC1` [Compound 396, (R)-8-cyclobutyl-6-(4-(cyclopropanecarbonyl)-3-isopropylpiperazin-1-yl)-3,3-dimethyl-3,4-dihydro-1H-pyrano[3,4-c]pyridine-5-carbonitrile]: the pIC50 is 6.00 to 6.30. For the compound `CC(C)c1nc(N2CCN(C(=O)c3ccoc3)[C@@H](c3ccccc3)C2)c(C#N)c2c1COC(C)(C)C2` [Compound 257, (S)-6-(4-(furan-3-carbonyl)-3-phenylpiperazin-1-yl)-8-isopropyl-3,3-dimethyl-3,4-dihydro-1H-pyrano[3,4-c]pyridine-5-carbonitrile], the pIC50 is 5.00 to 6.00. With `CC1CN(c2nc(C3CC3)c3c(c2C#N)CC(C)(C)OC3)CCN1C(=O)c1ccco1` (stereo not shown) [Compound 135, 8-cyclopropyl-6-(4-(furan-2-carbonyl)-3-methylpiperazin-1-yl)-3,3-dimethyl-3,4-dihydro-1H-pyrano[3,4-c]pyridine-5-carbonitrile], the pIC50 is 5.00 to 6.00.

Consider `CC(C)c1nc(N2CCN(C(=O)c3ccco3)[C@@H](c3ccccc3)C2)c(C#N)c2c1COC(C)(C)C2` [Compound 223, (S)-6-(4-(furan-2-carbonyl)-3-phenylpiperazin-1-yl)-8-isopropyl-3,3-dimethyl-3,4-dihydro-1H-pyrano[3,4-c]pyridine-5-carbonitrile], for which the pIC50 was 6.00 to 6.30. Consider `CC(C)[C@@H]1CN(c2nc(C3CC3)c3c(c2C#N)CC(C)(C)OC3)CCN1C(=O)COCCO` [Compound 348], for which the pIC50 was 5.00 to 6.00.

In the case of `C=CCNC(=O)N1CCN(c2nc(C3CCCCC3)c3c(c2C#N)CCOC3)C[C@H]1C` [Compound 334, (R)—N-allyl-4-(5-cyano-8-cyclohexyl-3,4-dihydro-1H-pyrano[3,4-c]pyridin-6-yl)-2-methylpiperazine-1-carboxamide], the pIC50 was 5.00 to 6.00. Take `CC[C@@H]1CN(c2nc(C(C)C)c3c(c2C#N)CC(C)(C)OC3)CCN1C(=O)c1ccoc1` [Compound 205, (R)-6-(3-ethyl-4-(furan-3-carbonyl)piperazin-1-yl)-8-isopropyl-3,3-dimethyl-3,4-dihydro-1H-pyrano[3,4-c]pyridine-5-carbonitrile]: the pIC50 is more than 6.30.

For the compound `CCOC(=O)C1CN(c2nc(C(C)C)c3c(c2C#N)CC(C)(C)OC3)CCN1C(=O)c1ccoc1` (stereo not shown) [Compound 276], the pIC50 is 6.00 to 6.30. With `N#Cc1c(N2CCN(C(=O)c3c[nH]c4ccccc34)CC2)nc(C2CCCCC2)c2c1CCOC2` [Compound 118, 6-(4-(1H-indole-3-carbonyl)piperazin-1-yl)-8-cyclohexyl-3,4-dihydro-1H-pyrano[3,4-c]pyridine-5-carbonitrile], the pIC50 was 5.00 to 6.00.

Still in this test, the particulars now being: IDH1 R132H enzyme, Table 3; read-out: R132H IC50.
Turning to `CC(=O)N1CCc2c(C#N)c(N3CCN(C(=O)C4CC4)[C@H](C4CC4)C3)nc(C3CC3)c2C1` [Compound 480, (R)-7-acetyl-3-(4-(cyclopropanecarbonyl)-3-cyclopropylpiperazin-1-yl)-1-cyclopropyl-5,6,7,8-tetrahydro-2,7-naphthyridine-4-carbonitrile], the pIC50 was 6.00 to 6.30. Take `COC(=O)C(C)CCC(=O)N1CCN(c2nc(C3CC3)c3c(c2C#N)CC(C)(C)OC3)C[C@H]1C(C)C` (stereo partly drawn) [Compound 439, Methyl 5-((R)-4-(5-cyano-8-cyclopropyl-3,3-dimethyl-3,4-dihydro-1H-pyrano[3,4-c]pyridin-6-yl)-2-isopropylpiperazin-1-yl)-2-methyl-5-oxopentanoate]: the pIC50 is 6.00 to 6.30. `C/C=C/C(=O)N1CCc2c(C#N)c(N3CCN(C(=O)C4CC4)[C@H](C4CC4)C3)nc(C3CC3)c2C1` [Compound 499, (R,E)-7-but-2-enoyl-3-(4-(cyclopropanecarbonyl)-3-cyclopropylpiperazin-1-yl)-1-cyclopropyl-5,6,7,8-tetrahydro-2,7-naphthyridine-4-carbonitrile]: the pIC50 was 6.00 to 6.30.

For the origin of these results see US9662327B2 (AGIOS PHARMACEUTICALS, INC, priority 2011, dated 2017).
